Values of other authors as cited in PMC3352981 (Bioorganic & medicinal chemistry letters, 2012).

Tests used:
BoNT/A [1] = test system: BoNT/A
BoNT/A [2] = settings: mouse

| SMILES | potency (in words) (BoNT/A [1]) | in vivo activity (BoNT/A [2]) |
| --- | --- | --- |
| CC(C)(C)c1ccc(C=CC(=O)NO)cc1 [4-tert-butylcinnamyl hydroxamate] | dramatic loss of potency |  |
| O=C(/C=C/c1ccc(Cl)cc1Cl)NO [Compound 1, 2,4-dichlorocinnamyl hydroxamic acid] |  | marginal in vivo activity |
